# According to ChEMBL document CHEMBL3414487, “Synthesis and biological activity of salinomycin conjugates with floxuridine” (Eur J Med Chem, 2015):
# How the values were obtained:
# [1] = Antiproliferative activity against human HL60 cells assessed as growth inhibition after 72 hrs by MTT assay; assay type: functional, cell-based; settings: HL-60, 72 h
# [2] = Antiproliferative activity against human vincristine-resistant HL60/Vinc cells assessed as growth inhibition after 72 hrs by MTT assay; assay type: functional; settings: Homo sapiens, HL60/vinc, 72 h
# LoVo [3] = experiment: Antiproliferative activity against human LoVo cells assessed as growth inhibition after 72 hrs by SRB method; assay type: functional, cell-based; settings: Homo sapiens, LoVo, 72 h
# [4] = Antiproliferative activity against human doxorubicin-resistant LoVo/DX cells assessed as growth inhibition after 72 hrs by SRB method; assay type: functional, cell-based
# HT-29 [5] = experiment: Antiproliferative activity against human HT-29 cells assessed as growth inhibition after 72 hrs by SRB method; assay type: functional, cell-based; settings: Homo sapiens, HT-29, 72 h
# [6] = Antiproliferative activity against human LS180 cells assessed as growth inhibition after 72 hrs by SRB method; assay type: functional, cell-based; settings: Homo sapiens, LS180, 72 h
# [7] = Antiproliferative activity against human SW707 cells assessed as growth inhibition after 72 hrs by SRB method; assay type: functional, cell-based; settings: Homo sapiens, SW707, 72 h
# BALB/3T3 = experiment: Antiproliferative activity against mouse BALB/3T3 cells assessed as growth inhibition after 72 hrs by SRB method; assay type: cell-based; settings: BALB/3T3, 72 h
# HL-60 [8] = experiment: Selectivity index, ratio of IC50 for mouse BALB/3T3 cells to IC50 for human HL60 cells; assay type: functional
# [9] = Selectivity index, ratio of IC50 for mouse BALB/3T3 cells to IC50 for human HL60/Vinc cells; assay type: functional
# LoVo [10] = experiment: Selectivity index, ratio of IC50 for mouse BALB/3T3 cells to IC50 for human LoVo cells; assay type: functional
# [11] = Selectivity index, ratio of IC50 for mouse BALB/3T3 cells to IC50 for human LoVo/DX cells; assay type: functional
# HT-29 [12] = experiment: Selectivity index, ratio of IC50 for mouse BALB/3T3 cells to IC50 for human HT-29 cells; assay type: functional
# [13] = Selectivity index, ratio of IC50 for mouse BALB/3T3 cells to IC50 for human LS180 cells; assay type: functional
# [14] = Selectivity index, ratio of IC50 for mouse BALB/3T3 cells to IC50 for human SW707 cells; assay type: functional
# HL-60 [15] = experiment: Resistance index, ratio of IC50 for human HL60/Vinc cells to IC50 for human HL60 cells
# LoVo [16] = experiment: Resistance index, ratio of IC50 for human LoVo/DX cells to IC50 for human LoVo cells
# Staphylococcus aureus [17] = experiment: Antimicrobial activity against Staphylococcus aureus […] 4163 after 18 hrs by two-fold serial microdilution method; assay type: functional
# Staphylococcus aureus [18] = experiment: Antimicrobial activity against Staphylococcus aureus ATCC 25923 after 18 hrs by two-fold serial microdilution method; assay type: functional; settings: ATCC 25923, 18 h
# Staphylococcus aureus [19] = experiment: Antimicrobial activity against Staphylococcus aureus ATCC 6538 after 18 hrs by two-fold serial microdilution method; assay type: functional; settings: ATCC 6538, 18 h
# Staphylococcus aureus [20] = experiment: Antimicrobial activity against Staphylococcus aureus ATCC 29213 after 18 hrs by two-fold serial microdilution method; assay type: functional; settings: ATCC 29213, 18 h
# [21] = system: Staphylococcus epidermidis; experiment: Antimicrobial activity against Staphylococcus epidermidis ATCC 12228 after 18 hrs by two-fold serial microdilution method; assay type: functional; settings: ATCC 12228, 18 h
# [22] = system: Staphylococcus epidermidis; experiment: Antimicrobial activity against Staphylococcus epidermidis ATCC 35984 after 18 hrs by two-fold serial microdilution method; assay type: functional; settings: ATCC 35984, 18 h
# Staphylococcus aureus [23] = experiment: Antimicrobial activity against methicillin-resistant Staphylococcus aureus 452/11 after 18 hrs by two-fold serial microdilution method; assay type: functional; settings: 452/11, 18 h
# Staphylococcus aureus [24] = experiment: Antimicrobial activity against methicillin-resistant Staphylococcus aureus 456/11 after 18 hrs by two-fold serial microdilution method; assay type: functional; settings: 456/11, 18 h
# Staphylococcus aureus [25] = experiment: Antimicrobial activity against methicillin-resistant Staphylococcus aureus 462/11 after 18 hrs by two-fold serial microdilution method; assay type: functional; settings: 462/11, 18 h
# Staphylococcus aureus [26] = experiment: Antimicrobial activity against methicillin-resistant Staphylococcus aureus 514/11 after 18 hrs by two-fold serial microdilution method; assay type: functional; settings: 514/11, 18 h
# Staphylococcus aureus [27] = experiment: Antimicrobial activity against methicillin-resistant Staphylococcus aureus 522/12 after 18 hrs by two-fold serial microdilution method; assay type: functional; settings: 522/12, 18 h
# Staphylococcus aureus [28] = experiment: Antimicrobial activity against methicillin-resistant Staphylococcus aureus 537/12 after 18 hrs by two-fold serial microdilution method; assay type: functional; settings: 537/12, 18 h
# Staphylococcus aureus [29] = experiment: Antimicrobial activity against methicillin-resistant Staphylococcus aureus 572/12 after 18 hrs by two-fold serial microdilution method; assay type: functional; settings: 572/12, 18 h
# Staphylococcus aureus [30] = experiment: Antimicrobial activity against methicillin-resistant Staphylococcus aureus 573/12 after 18 hrs by two-fold serial microdilution method; assay type: functional; settings: 573/12, 18 h
# Staphylococcus aureus [31] = experiment: Antimicrobial activity against methicillin-resistant Staphylococcus aureus 585/12 after 18 hrs by two-fold serial microdilution method; assay type: functional; settings: 585/12, 18 h
# Staphylococcus aureus [32] = experiment: Antimicrobial activity against methicillin-resistant Staphylococcus aureus 586/12 after 18 hrs by two-fold serial microdilution method; assay type: functional; settings: 586/12, 18 h
# [33] = system: Staphylococcus epidermidis; experiment: Antimicrobial activity against methicillin-resistant Staphylococcus epidermidis 459/11 after 18 hrs by two-fold serial microdilution method; assay type: functional; settings: 459/11, 18 h
# [34] = system: Staphylococcus epidermidis; experiment: Antimicrobial activity against methicillin-resistant Staphylococcus epidermidis 460/11 after 18 hrs by two-fold serial microdilution method; assay type: functional; settings: 460/11, 18 h
# [35] = system: Staphylococcus epidermidis; experiment: Antimicrobial activity against methicillin-resistant Staphylococcus epidermidis 461/11 after 18 hrs by two-fold serial microdilution method; assay type: functional; settings: 461/11, 18 h
# [36] = system: Staphylococcus epidermidis; experiment: Antimicrobial activity against methicillin-resistant Staphylococcus epidermidis 466/11 after 18 hrs by two-fold serial microdilution method; assay type: functional; settings: 466/11, 18 h
# [37] = system: Staphylococcus epidermidis; experiment: Antimicrobial activity against methicillin-resistant Staphylococcus epidermidis 467/11 after 18 hrs by two-fold serial microdilution method; assay type: functional; settings: 467/11, 18 h
# [38] = system: Staphylococcus epidermidis; experiment: Antimicrobial activity against methicillin-resistant Staphylococcus epidermidis 468/11 after 18 hrs by two-fold serial microdilution method; assay type: functional; settings: 468/11, 18 h
# [39] = system: Staphylococcus epidermidis; experiment: Antimicrobial activity against methicillin-resistant Staphylococcus epidermidis 469/11 after 18 hrs by two-fold serial microdilution method; assay type: functional; settings: 469/11, 18 h
# [40] = system: Staphylococcus epidermidis; experiment: Antimicrobial activity against methicillin-resistant Staphylococcus epidermidis 470/11 after 18 hrs by two-fold serial microdilution method; assay type: functional; settings: 470/11, 18 h
# [41] = system: Staphylococcus epidermidis; experiment: Antimicrobial activity against methicillin-resistant Staphylococcus epidermidis 488/11 after 18 hrs by two-fold serial microdilution method; assay type: functional; settings: 488/11, 18 h
# [42] = system: Staphylococcus epidermidis; experiment: Antimicrobial activity against methicillin-resistant Staphylococcus epidermidis 489/11 after 18 hrs by two-fold serial microdilution method; assay type: functional; settings: 489/11, 18 h
smiles,measurement,setting,value
CC[C@@H](C(=O)[C@@H](C)[C@@H](O)[C@H](C)[C@@H]1O[C@@H]([C@@H](CC)C(=O)O)CC[C@@H]1C)[C@H]1O[C@]2(C=C[C@@H](O)[C@]3(CC[C@@](C)([C@H]4CC[C@](O)(CC)[C@H](C)O4)O3)O2)[C@H](C)C[C@@H]1C [SALINOMYCIN],IC50,[1],0.29 µM
same,IC50,[2],2.09 µM
same,IC50,LoVo [3],0.36 µM
same,IC50,[4],0.76 µM
same,IC50,HT-29 [5],1.03 µM
same,IC50,[6],0.61 µM
same,IC50,[7],1.73 µM
same,IC50,BALB/3T3,9.33 µM
same,Selectivity Index,HL-60 [8],32.17
same,Selectivity Index,[9],4.46
same,Selectivity Index,LoVo [10],25.92
same,Selectivity Index,[11],12.28
same,Selectivity Index,HT-29 [12],9.06
same,Selectivity Index,[13],15.3
same,Selectivity Index,[14],5.39
same,Ratio IC50,HL-60 [15],7.21
same,Ratio IC50,LoVo [16],2.11
same,MIC,Staphylococcus aureus [17],2.66 µM
same,MIC,Staphylococcus aureus [18],2.66 µM
same,MIC,Staphylococcus aureus [19],2.66 µM
same,MIC,Staphylococcus aureus [20],2.66 µM
same,MIC,[21],2.66 µM
same,MIC,[22],2.66 µM
same,MIC,Staphylococcus aureus [23],1.33 µM
same,MIC,Staphylococcus aureus [24],1.33 µM
same,MIC,Staphylococcus aureus [25],2.66 µM
same,MIC,Staphylococcus aureus [26],2.66 µM
same,MIC,Staphylococcus aureus [27],2.66 µM
same,MIC,Staphylococcus aureus [28],2.66 µM
same,MIC,Staphylococcus aureus [29],1.33 µM
same,MIC,Staphylococcus aureus [30],1.33 µM
same,MIC,Staphylococcus aureus [31],2.66 µM
same,MIC,Staphylococcus aureus [32],2.66 µM
same,MIC,[33],2.66 µM
same,MIC,[34],2.66 µM
same,MIC,[35],2.66 µM
same,MIC,[36],2.66 µM
same,MIC,[37],2.66 µM
same,MIC,[38],2.66 µM
same,MIC,[39],2.66 µM
same,MIC,[40],2.66 µM
same,MIC,[41],2.66 µM
same,MIC,[42],2.66 µM
O=c1[nH]c(=O)n([C@H]2C[C@H](O)[C@@H](CO)O2)cc1F [FLOXURIDINE],IC50,[1],0.24 µM
same,IC50,[2],17.4 µM
same,IC50,LoVo [3],19.1 µM
same,IC50,[4],16.7 µM
same,IC50,HT-29 [5],115 µM
same,IC50,[6],140 µM
same,IC50,[7],23.9 µM
same,IC50,BALB/3T3,23.9 µM
same,Selectivity Index,HL-60 [8],99.58
same,Selectivity Index,[9],1.37
same,Selectivity Index,LoVo [10],1.25
same,Selectivity Index,[11],1.43
same,Selectivity Index,HT-29 [12],0.21
same,Selectivity Index,[13],0.17
same,Selectivity Index,[14],1
same,Ratio IC50,HL-60 [15],72.5
same,Ratio IC50,LoVo [16],0.87
same,MIC,Staphylococcus aureus [17],≤ 0.016 µM
same,MIC,Staphylococcus aureus [18],≤ 0.016 µM
same,MIC,Staphylococcus aureus [19],≤ 0.016 µM
same,MIC,Staphylococcus aureus [20],≤ 0.016 µM
same,MIC,[21],≤ 0.016 µM
same,MIC,[22],≤ 0.016 µM
same,MIC,Staphylococcus aureus [23],≤ 0.016 µM
same,MIC,Staphylococcus aureus [24],≤ 0.016 µM
same,MIC,Staphylococcus aureus [25],≤ 0.016 µM
same,MIC,Staphylococcus aureus [26],≤ 0.016 µM
same,MIC,Staphylococcus aureus [27],≤ 0.016 µM
same,MIC,Staphylococcus aureus [28],≤ 0.016 µM
same,MIC,Staphylococcus aureus [29],≤ 0.016 µM
same,MIC,Staphylococcus aureus [30],≤ 0.016 µM
same,MIC,Staphylococcus aureus [31],≤ 0.016 µM
same,MIC,Staphylococcus aureus [32],≤ 0.016 µM
same,MIC,[33],≤ 0.016 µM
same,MIC,[34],≤ 0.016 µM
same,MIC,[35],≤ 0.016 µM
same,MIC,[36],≤ 0.016 µM
same,MIC,[37],≤ 0.016 µM
same,MIC,[38],≤ 0.016 µM
same,MIC,[39],≤ 0.016 µM
same,MIC,[40],≤ 0.016 µM
same,MIC,[41],≤ 0.016 µM
same,MIC,[42],≤ 0.016 µM
